For 5 molecules, EC50, IC50 and AC50 results are on record in ChEMBL document CHEMBL1201862, “PubChem BioAssay data set” (2004).

Structures are written as SMILES. Activity calls are given as the source filed them. Where only a bound is given, the exact number is not on record here.

Assay [1] is described as follows: cytotoxicity toward NIH3T3 fibroblasts, dose response, counter-screen, cell-based, ATP luminescence, mouse fibroblasts (AID 2010).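 Note: cells exposed to compound for about 90 hours before reading.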 The assay is classed as functional. On the technique in general: Counterscreens check selectivity or assay interference.
The nature of assay [2]: Luminescence Cell-Based Secondary HTS screen to identify cytotoxic compounds of NIH3T3 cells. [Related pubchem assays: 1885, 1968 ]. Type of assay: functional.
Assay [3] is described as follows: Luminescence Cell-Based/Microorganism Confirmation at Dose of Inhibitors of Trypanosoma cruzi Infection. [Related pubchem assays: 1885, 1968 ]. The assay is classed as functional.
A short description of assay [4]: inhibitors of Trypanosoma cruzi host-cell infection, confirmation, beta-gal luminescence, NIH3T3 host cells (AID 2630). Type of assay: functional, cell-based. To be noted: Mus musculus.
Assay [5] can be described thus: inhibitors of intracellular T. cruzi replication, confirmation, NIH3T3 host cells, beta-gal luminescence (AID 2044).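 Note: intracellular parasites grown in NIH/3T3 mouse fibroblasts as host cells; luminescent beta-galactosidase reporter signal from transgenic T. cruzi replicating inside host cells; inhibitors lower the luminescence signal.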 The assay is classed as functional, cell-based.
The nature of the next assay: cells. Type of assay: functional.
Assay [6] has as its target T1, High affinity choline transporter 1 (Homo sapiens, UniProt Q9GZV3).
T1 sequence (Q9GZV3 whole entry): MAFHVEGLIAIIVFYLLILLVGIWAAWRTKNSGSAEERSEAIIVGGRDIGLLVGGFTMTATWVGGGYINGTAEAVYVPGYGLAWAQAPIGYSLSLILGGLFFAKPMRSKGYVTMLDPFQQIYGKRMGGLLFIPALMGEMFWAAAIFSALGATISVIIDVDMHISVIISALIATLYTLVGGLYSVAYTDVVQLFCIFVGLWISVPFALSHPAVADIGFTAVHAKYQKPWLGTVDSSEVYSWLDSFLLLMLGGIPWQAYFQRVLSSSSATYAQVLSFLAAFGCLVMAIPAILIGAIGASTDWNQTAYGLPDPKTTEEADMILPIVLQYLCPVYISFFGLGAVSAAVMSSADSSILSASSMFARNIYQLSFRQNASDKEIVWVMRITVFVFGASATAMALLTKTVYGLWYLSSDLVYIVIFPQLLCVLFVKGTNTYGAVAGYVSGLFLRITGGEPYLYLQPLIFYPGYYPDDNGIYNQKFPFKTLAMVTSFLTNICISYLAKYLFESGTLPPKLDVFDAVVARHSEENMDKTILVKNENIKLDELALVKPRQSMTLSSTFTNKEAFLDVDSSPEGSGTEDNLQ
The assay is described as follows: CHT inhibitors, dose response, cell-based, 5-point CRC, membrane potential dye (AID 504840). The assay is classed as functional.

A short description of assay [7]: cytotoxicity in HEK-293T cells, dose response, cytotoxicity control for TCR NF-kB inhibitor project, luminescence, T-cell screen hits (AID 489026).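 Note: cells exposed to compound about 14 hours before the viability readout.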 The assay is classed as functional, cell-based.
In assay [8] the test system is Streptococcus sp. 'group A'. The assay is described as follows: growth inhibition of control SK(-) GAS strain, dose response, counter-screen for streptokinase expression inhibitor project, luminescence, kanamycin, BacTiterGlo, confirmation (AID 1900). Type of assay: functional, organism-based.
The subject of another assay is Escherichia coli. The assay can be described thus: microbe, parasite or virus in culture.
The next assay relates to Streptococcus. The assay can be described thus: Group A Streptococcus viability loss, dose response, counter-screen for streptokinase expression inhibitor project, luminescence, BacTiterGlo (AID 1915).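 Note: potency for reduction of bacterial viability or growth.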 Type of assay: functional, organism-based.

On to `CC(C)(C)OC(=O)N/N=C\c1ccc([N+](=O)[O-])s1`, for which the EC50 in assay [1] was > 60 µM (not active); in assay [2] it was > 195 µM (not active); in assay [3], 2.46 µM (active); in [4] it was 2.46 µM (active); in assay [5] it was 2.7 µM (active). Besides, in the assay “cells”, the IC50 is 27.3 µM (active).
Turning to `Cc1ccc(C(=O)NC2CCCC(C)C2C)cc1S(=O)(=O)N1CCCCC1` (configuration not stated), the IC50 in assay [6] was 9.55 µM (active).
For `CCO[C@H]1OC(C(=O)NCc2nc3ccccc3[nH]2)=C[C@@H](C2CC2)[C@@H]1CCCO`, in assay [7], the IC50 is > 80 µM (inactive).
Turning to `COC(=O)N/N=C/c1cc(C)n(-c2ccccc2)c1C`, the IC50 in [6] is 11.5 µM (active).
With `CC[C@H]1OC(=O)[C@H](C)[C@@H](O[C@H]2C[C@@](C)(OC)[C@@H](O)[C@H](C)O2)[C@H](C)[C@@H](O[C@@H]2O[C@H](C)C[C@H](N(C)C)[C@H]2O)[C@](C)(O)C[C@@H](C)CN(C)[C@H](C)[C@@H](O)[C@]1(C)O` [AZITHROMYCIN], the EC50 was < 0.06 µM (active) in assay [8] and 0.066 µM (active) in the assay on Streptococcus. Moreover, in the assay on Escherichia coli, the AC50 was 29.3 µM (active).

One may read the EC50 as the concentration giving half of the maximal effect. Broadly, the IC50 is the midpoint of a concentration-inhibition curve. A word on the AC50: it is the midpoint of the concentration-response curve, whichever way the signal moves.
